Results on 15 compounds are retold here after ChEMBL document CHEMBL4017450, “Synthesis and carbonic anhydrase inhibition of a series of SLC-0111 analogs” (Bioorg Med Chem, 2017).

SMILES strings stand for the structures.

Sequence of Carbonic anhydrase 12 (O43570 whole entry): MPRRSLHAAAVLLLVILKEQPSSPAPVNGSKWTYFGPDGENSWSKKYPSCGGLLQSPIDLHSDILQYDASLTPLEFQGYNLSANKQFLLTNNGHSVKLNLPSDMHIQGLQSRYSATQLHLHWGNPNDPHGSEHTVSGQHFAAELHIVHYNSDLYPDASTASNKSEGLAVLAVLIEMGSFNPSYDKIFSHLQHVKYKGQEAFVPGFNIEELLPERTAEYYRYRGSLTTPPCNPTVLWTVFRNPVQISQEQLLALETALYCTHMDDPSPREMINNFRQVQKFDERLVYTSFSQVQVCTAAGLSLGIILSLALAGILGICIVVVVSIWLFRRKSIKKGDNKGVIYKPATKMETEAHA

The target in one assay is Carbonic anhydrase 9 (Homo sapiens, UniProt Q16790).
Description: Inhibition of human recombinant carbonic anhydrase 9 preincubated for 15 mins prior to testing measured for 10 to 100 secs by phenol red-based stopped-flow CO2 hydration assay
As to `NS(=O)(=O)c1ccc(NC(=O)Nc2cc(C(F)(F)F)ccc2F)cc1`, the affinity, expressed as Ki, was 7.4 nM.
Still for that read-out and setting: under `NS(=O)(=O)c1ccc(NC(=O)Nc2cc([N+](=O)[O-])ccc2Cl)cc1` stands 8.2 nM; under `NS(=O)(=O)c1ccc(NC(=O)Nc2ccc(Cl)cc2F)cc1`, 5.1 nM; under `CC(C)c1ccccc1NC(=O)Nc1cccc(S(N)(=O)=O)c1`, 349 nM.
`NS(=O)(=O)c1cccc(NC(=O)Nc2ccc(F)cc2)c1`: affinity was put at a Ki of 219 nM.
Same read-out and setting: under `NS(=O)(=O)c1ccc(NC(=O)Nc2ccc(F)c(F)c2F)cc1` stands 9.6 nM; under `NS(=O)(=O)c1ccc(NC(=O)Nc2cccc(Cl)c2)cc1`, 8.4 nM.
In the case of `NS(=O)(=O)c1ccc(NC(=O)Nc2cc(F)c(F)cc2F)cc1`, the affinity corresponds to a Ki of 7.6 nM.
Still for that read-out and setting: then `NS(=O)(=O)c1cccc(NC(=O)Nc2ccc(I)cc2)c1`, with 116 nM.
On the same count and under the same terms, then `NS(=O)(=O)c1cccc(NC(=O)Nc2c(F)c(F)c(F)c(F)c2F)c1`, with 162 nM; and `CC(=O)c1ccc(NC(=O)Nc2cccc(S(N)(=O)=O)c2)cc1`, with 178 nM.
The same measure, in the same setting: under `NS(=O)(=O)c1ccc(NC(=O)Nc2ccc(F)cc2F)cc1` stands 3.7 nM; under `NS(=O)(=O)c1ccc(NC(=O)Nc2ccccc2F)cc1`, 7.7 nM; under `NS(=O)(=O)c1ccc(NC(=O)Nc2cc(Cl)ccc2Cl)cc1`, 8.9 nM.
Consider `NS(=O)(=O)c1cccc(NC(=O)Nc2cccc([N+](=O)[O-])c2)c1`, for which the Ki (in general, the dissociation constant of the complex between target and ligand, obtained from inhibition or displacement) was 154 nM.

In another assay the target is Carbonic anhydrase 2 (Homo sapiens, UniProt P00918). Briefly: Inhibition of human recombinant carbonic anhydrase 2 preincubated for 15 mins prior to testing measured for 10 to 100 secs by phenol red-based stopped-flow CO2 hydration assay.
For `NS(=O)(=O)c1ccc(NC(=O)Nc2cccc(Cl)c2)cc1`, the Ki worked out at 10 nM.

The next assay concerns the target Carbonic anhydrase 12 (Homo sapiens, UniProt O43570). Briefly: Inhibition of human recombinant carbonic anhydrase 12 preincubated for 15 mins prior to testing measured for 10 to 100 secs by phenol red-based stopped-flow CO2 hydration assay.
On to `NS(=O)(=O)c1ccc(NC(=O)Nc2cccc(Cl)c2)cc1`, for which the Ki amounted to 8.5 nM.
